Here are results for two compounds from patent US12590108B2, “Boracic acid compound” (Phaeno Therapeutics Co., Ltd, priority 2020, dated 2026).

The subject of experiment [1] is Klebsiella pneumoniae ATCC BAA-1705. The experiment is described as follows: Mouse lung infection model, bacterial load. Format: in vivo, CD-1 female mice. The note with it: endpoint 12 h. The procedure:
(§1) 36 CD-1 female mice were divided into 12 cages with 3 […] in each cage. The day of infection was denoted as day 0.
(§2) Immunosuppressant cyclophosphamide at 150 mg/kg was injected intraperitoneally on day −4 and immunosuppressant cyclophosphamide at 100 mg/kg was injected intraperitoneally on day −1 to induce immunodeficient mice.
On day −1, the strain Klebsiella pneumoniae ATCC BAA-1705 was resuscitated on an MHA plate. Resuscitated colonies were picked and dissolved in sterile physiological saline to prepare a bacterial solution with a concentration of 2.75E+08 CFU/mL for lung infection by nasal drip. The initial time of infection was denoted as 0 h, and 50 μL of the bacterial solution was injected into each mouse by nasal drip at 0 h, that is, the inoculation amount was 1.38E+07 CFU/mouse. 2 h after infection, dosing was performed according to the experimental scheme. The specific experimental scheme was as follows (see Table 6): • (1) 2 h after infection: for the 1st cage of mice, at the endpoint, lung tissue was taken and placed in 10 mL of sterile physiological saline, the tissue was homogenized by a homogenizer, and the homogenate was diluted in a gradient and spotted in a plate, with two replicates for each mouse. • (2) 2 h after infection: the 2nd to 12th cages were respectively treated at 10 mL/kg by volume according to the body weight of the mice, the 2nd cage of mice were given a vehicle by intravenous injection every 2 h, and the endpoint was 12 h; the 3rd cage of mice were given 100 mg/kg of meropenem by intravenous injection every 2 h, and the endpoint was 12 h; the 4th cage of mice were given 100 mg/kg of meropenem and 20 mg/kg of QPX7728 by intravenous injection every 2 h, and the endpoint was 12 h; the 5th cage of mice were given 100 mg/kg of meropenem and 100 mg/kg of compound 15 by intravenous injection every 2 h, and the endpoint was 12 h; the 6th cage of mice were given 100 mg/kg of meropenem and 20 mg/kg of compound 15 by intravenous injection every 2 h, and the endpoint was 12 h; the 7th cage of mice were given 100 mg/kg of meropenem and 4 mg/kg of compound 15 by intravenous injection every 2 h, and the endpoint was 12 h; the 8th cage of mice were given 100 mg/kg of cefepime by intravenous injection every 2 h, and the endpoint was 12 h; the 9th cage of mice were given 100 mg/kg of cefepime and 20 mg/kg of QPX7728 by intravenous injection every 2 h, and the endpoint was 12 h; the 10th cage of mice were given 100 mg/kg of cefepime and 100 mg/kg of compound 15 by intravenous injection every 2 h, and the endpoint was 12 h: the 11th cage of mice were given 100 mg/kg of cefepime and 20 mg/kg of compound 15 by intravenous injection every 2 h, and the endpoint was 12 h; and the 12th cage of mice were given 100 mg/kg of cefepime and 4 mg/kg of compound 15 by intravenous injection every 2 h, and the endpoint was 12 h. At the endpoint, lung tissue was taken and placed in 10 mL of sterile physiological saline, the tissue was homogenized by a homogenizer, and the homogenate was diluted in a gradient and spotted in a plate, with two replicates for each mouse. The bacterial load in the lung tissue of the mice was counted, and the experiment was summarized as follows (see Table 7): […]

Experiment [2] has the same test system. As to the kind of experiment: Mouse thigh muscle infection model, bacterial load. As to conditions: endpoint 12 h. The class given is in vivo, CD-1 female mice. The procedure:
as §1, §2
On day −1, the strain Klebsiella pneumoniae ATCC BAA-1705 was resuscitated on an MHA plate. Resuscitated colonies were picked and dissolved in sterile physiological saline to prepare a bacterial solution with a concentration of 5.6E+07 CFU/mL for thigh muscle infection in mice. The initial time of infection was denoted as 0 h, and 100 μL of the bacterial solution was injected into each mouse at the thigh muscle at 0 h, that is, the inoculation amount was 5.6E+06 CFU/mouse. 2 h after infection, dosing was performed according to the experimental scheme. The specific experimental scheme was as follows (see Table 4): • (1) 2 h after infection: for the 1st cage of mice, at the endpoint, thigh muscle tissue was taken and placed in 10 mL of sterile physiological saline, the tissue was homogenized by a homogenizer, and the homogenate was diluted in a gradient and spotted in a plate, with two replicates for each mouse. • (2) 2 h after infection: the 2nd to 12th cages were respectively treated at 10 mL/kg by volume according to the body weight of the mice, the 2nd cage of mice were given a vehicle by intravenous injection every 2 h, and the endpoint was 12 h; the 3rd cage of mice were given 100 mg/kg of meropenem by intravenous injection every 2 h, and the endpoint was 12 h; the 4th cage of mice were given 100 mg/kg of meropenem and 20 mg/kg of QPX7728 by intravenous injection every 2 h, and the endpoint was 12 h; the 5th cage of mice were given 100 mg/kg of meropenem and 100 mg/kg of compound 15 by intravenous injection every 2 h, and the endpoint was 12 h; the 6th cage of mice were given 100 mg/kg of meropenem and 20 mg/kg of compound 15 by intravenous injection every 2 h, and the endpoint was 12 h; the 7th cage of mice were given 100 mg/kg of meropenem and 4 mg/kg of compound 15 by intravenous injection every 2 h, and the endpoint was 12 h; the 8th cage of mice were given 100 mg/kg of cefepime by intravenous injection every 2 h, and the endpoint was 12 h; the 9th cage of mice were given 100 mg/kg of cefepime and 20 mg/kg of QPX7728 by intravenous injection every 2 h, and the endpoint was 12 h; the 10th cage of mice were given 100 mg/kg of cefepime and 100 mg/kg of compound 15 by intravenous injection every 2 h, and the endpoint was 12 h; the 11th cage of mice were given 100 mg/kg of cefepime and 20 mg/kg of compound 15 by intravenous injection every 2 h, and the endpoint was 12 h; and the 12th cage of mice were given 100 mg/kg of cefepime and 4 mg/kg of compound 15 by intravenous injection every 2 h, and the endpoint was 12 h. At the endpoint of 12 h, thigh muscle tissue was taken and placed in 10 mL of sterile physiological saline, the tissue was homogenized by a homogenizer, and the homogenate was diluted in a gradient and spotted in a plate, with two replicates for each mouse. The bacterial load in the thigh muscle tissue of the mice was counted, and the experiment was summarized as follows (see Table 5): […]

The mark [3] stands for this setting: antibiotic alone 100 mg/kg i.v. q2h.
Setting [4] is: cefepime 100 mg/kg + inhibitor 20 mg/kg i.v. q2h.
[5] abbreviates: meropenem 100 mg/kg + inhibitor 20 mg/kg i.v. q2h.

On to `CO/N=C(\C(=O)N[C@@H]1C(=O)N2C(C(=O)[O-])=C(C[N+]3(C)CCCC3)CS[C@H]12)c1csc(N)n1` [Cefepime, cefepime, reference compound], for which, in experiment [1] (setting [3]), the “Average CFU in mice (lung tissue)” value is given as 1.90E+08 CFU/mouse. In addition, the “Average CFU in mice (thigh muscle tissue)” value in experiment [2] (setting [3]) amounted to 4.25E+07 CFU/mouse.
As to `O=C(O)c1c(F)ccc2c1OB(O)[C@@H]1C[C@H]21` [QPX7728, reference compound], the results for the “Average CFU in mice (lung tissue)” value in experiment [1] (setting [4]) and in experiment [1] (setting [5]) were 2.68E+06 CFU/mouse and 8.42E+06 CFU/mouse, respectively. Further, the “Average CFU in mice (thigh muscle tissue)” value in experiment [2] (setting [4]) came to 1.50E+07 CFU/mouse; in experiment [2] (setting [5]), 1.02E+07 CFU/mouse.
